Results from patent US12187709B2 (Genentech, Inc., priority 2021, dated 2025).

Experiments:
Cbl-b = Cbl-b (Homo sapiens (Human), UniProt Q13191); assay: Cbl-b LCK Ub TR-FRET assay (Cbl-b Lck HTRF); format: biochemical; settings: for IC50: Cbl-b LCK Ub TR-FRET; for fold-selectivity (Cbl-b over C-cbl) / (fold-selectivity) Cbl-b and C-Cbl Selectivity: ratio C-cbl Lck HTRF IC50 / Cbl-b Lck HTRF IC50
Outline: (§1)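 Signal is read once the detection mix has stood 20 min at ambient temperature. Curves are anchored by DMSO as maximum and by omission of LCK as minimum.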

c-Cbl = c-Cbl (Homo sapiens (Human), UniProt P22681); assay: C-Cbl LCK Ub TR-FRET assay (C-cbl Lck HTRF); format: biochemical
Chain of c-Cbl (P22681 47-435): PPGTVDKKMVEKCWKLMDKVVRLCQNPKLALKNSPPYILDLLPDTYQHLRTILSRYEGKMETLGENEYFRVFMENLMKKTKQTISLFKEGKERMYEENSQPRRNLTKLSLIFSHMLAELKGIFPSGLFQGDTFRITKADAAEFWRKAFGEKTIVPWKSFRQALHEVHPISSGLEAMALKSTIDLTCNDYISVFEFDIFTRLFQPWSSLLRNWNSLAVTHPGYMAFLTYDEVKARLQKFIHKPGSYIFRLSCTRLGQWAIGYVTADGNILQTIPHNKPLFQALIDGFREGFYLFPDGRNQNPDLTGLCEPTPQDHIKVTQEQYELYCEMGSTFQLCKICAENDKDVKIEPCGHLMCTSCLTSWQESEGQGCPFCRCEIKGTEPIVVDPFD
Outline: as §1

[1] = target: Human Cbl-b (residues 40-426) (Homo sapiens (Human), UniProt Q13191); assay: Cbl-b SPR assay; format: binding; settings: for Fold of selectivity: C-cbl SPR Kd vs Cbl-b SPR Kd; for Kd: SPR, 20° C.
Chain of Human Cbl-b (residues 40-426) (Q13191 40-426): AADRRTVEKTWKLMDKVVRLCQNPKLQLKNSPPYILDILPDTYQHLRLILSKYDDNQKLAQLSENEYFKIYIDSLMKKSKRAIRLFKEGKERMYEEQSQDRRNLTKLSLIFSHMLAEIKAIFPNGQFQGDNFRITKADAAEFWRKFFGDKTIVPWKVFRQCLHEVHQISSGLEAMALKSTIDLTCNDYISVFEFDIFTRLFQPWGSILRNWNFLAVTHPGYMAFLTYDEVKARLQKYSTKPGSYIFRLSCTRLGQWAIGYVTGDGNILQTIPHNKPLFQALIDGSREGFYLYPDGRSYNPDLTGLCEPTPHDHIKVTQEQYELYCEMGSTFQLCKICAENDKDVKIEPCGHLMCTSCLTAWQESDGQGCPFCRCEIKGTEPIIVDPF
Outline: (§2)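 Values derive from a 1:1 model fitted to multicycle kinetics on captured protein (1300-1500 RU), using six 2-fold concentrations, 60 s contact and dissociation of 120-1200 s. In the chaser format, kd comes from a single-exponential fit of % site occupancy over time.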

c-Cbl (residues 47-435) = c-Cbl (residues 47-435) (Homo sapiens (Human), UniProt P22681); assay: c-Cbl SPR assay; format: binding; settings: 20° C.
Chain of c-Cbl (residues 47-435) (P22681 47-435): as the sequence (P22681 47-435) above
Outline: as §2

Chain of Cbl-b (Q13191 40-426): as the sequence (Q13191 40-426) above

Row | IC50 (Cbl-b) | fold-selectivity (Cbl-b over C-cbl) (Cbl-b) | IC50 (c-Cbl) | Fold of selectivity [1] | Kd [1] | Kd (c-Cbl (residues 47-435)) | IC50 (Cbl-b; Example 121) | (fold-selectivity) Cbl-b and C-Cbl Selectivity (Cbl-b) | Structure (SMILES)
1 | 9.8 nM | 0.85x | 8.3 nM | 2.0× | 0.37 nM | 0.74 nM |  |  | CCOc1cc(N2Cc3c(cc(CNC4(C)CCC4)cc3C(F)(F)F)C2=O)cc([C@]2(c3nncn3C)C[C@@H](C)C2)c1 [Compound 181, 2-(3-ethoxy-5-((1s,3s)-3-methyl-1-(4-methyl-4H-1,2,4-triazol-3-yl)cyclobutyl)phenyl)-6-(((1-methylcyclobutyl)amino)methyl)-4-(trifluoromethyl)isoindolin-1-one]
2 | 11 nM | 1.0x | 22 nM | 15× | 0.95 nM | 15 nM |  |  | Cn1cnnc1C1(c2cc(NCCC#N)nc(N3Cc4c(cc(CNC5(C)CCC5)cc4C(F)(F)F)C3=O)c2)CC2(COC2)C1 [Compound 187, 3-((4-(6-(4-methyl-4H-1,2,4-triazol-3-yl)-2-oxaspiro[3.3]heptan-6-yl)-6-(6-(((1-methylcyclobutyl)amino)methyl)-1-oxo-4-(trifluoromethyl)isoindolin-2-yl)pyridin-2-yl)amino)propanenitrile]
3 | 27 nM | (0.93x) | 25 nM | 4.4× | 1.3 nM | 5.7 nM |  |  | CCNc1cc(C2(c3nncn3C)CC3(COC3)C2)cc(N2Cc3c(cc(CNC4(C)CCC4)cc3C(F)(F)F)C2=O)n1 [Compound 7, 2-(6-(ethylamino)-4-(6-(4-methyl-4H-1,2,4-triazol-3-yl)-2-oxaspiro[3.3]heptan-6-yl)pyridin-2-yl)-6-(((1-methylcyclobutyl)amino)methyl)-4-(trifluoro-methyl)isoindolin-1-one]
4 | 5.5 nM | (0.93x) | 5.1 nM | 3.2× | 0.37 nM | 1.1 nM |  |  | CCNc1cc(C2(c3nncn3C)CC(F)(F)C2)cc(N2Cc3c(cc(CNC4(C)CCC4)cc3C(F)(F)F)C2=O)n1 [Compound 17, 2-(4-(3,3-difluoro-1-(4-methyl-4H-1,2,4-triazol-3-yl)cyclobutyl)-6-(ethylamino)pyridin-2-yl)-6-(((1-methylcyclobutyl)amino)methyl)-4-(trifluoromethyl)isoindolin-1-one]
5 | 75 nM | 3.4 x | 250 nM | 6.0× | 12 nM | 130 nM |  |  | C[C@@H]1C[C@](c2cccc(N3Cc4c(cc(CNC5(C)CCC5)cc4C(F)(F)F)C3=O)c2)(c2nncn2C)O1 [Compound 126, 2-(3-((2S,4R)-4-methyl-2-(4-methyl-4H-1,2,4-triazol-3-yl)oxetan-2-yl)phenyl)-6-(((1-methylcyclobutyl)amino)methyl)-4-(trifluoromethyl)isoindolin-1-one]
6 | 34 nM | 2.4x | 82 nM | 2.4× | 12 nM | 30 nM |  |  | CO[C@H]1C[C@@](c2cc(OC(C)C)cc(N3Cc4c(cc(CNC5(C)CCC5)cc4C(F)(F)F)C3=O)c2)(c2nncn2C)C1 [Compound 206, 2-(3-isopropoxy-5-((1s,3s)-3-methoxy-1-(4-mehtyl-4H-1,2,4-triazol-3-yl)cyclobutyl)phenyl)-6-(((1-methylcyclobutyl)amino)methyl)-4-(trifluoromethyl)isoindolin-1-one]
7 | 150 nM | 2.6x | 390 nM | 4.8× | 110 nM | 530 nM |  |  | CO[C@H]1C[C@](c2cc(OC3CCCC3)cc(N3Cc4c(cc(CNC5(C)CCC5)cc4C(F)(F)F)C3=O)c2)(c2nncn2C)C1 [Compound 212, 2-(3-(cyclopentyloxy)-5-((1r,3r)-3-methoxy-1-(4-methyl-4H-1,2,4-triazol-3-yl)cyclobutyl)phenyl)-6-(((1-methylcyclobutyl)amino)methyl)-4-(trifluoromethyl)isoindolin-1-one]
8 | 13 nM | 3.2x | 42 nM | 9× | 4.2 nM | 39 nM |  |  | Cn1cnnc1[C@]1(c2cccc(N3Cc4c(cc(CNC5(C)CCC5)cc4C(F)(F)F)C3=O)c2)C[C@H](OCF)C1 [Compound 370, 2-(3-((1s,3s)-3-(fluoromethoxy)-1-(4-methyl-4H-1,2,4-triazol-3-yl)cyclobutyl)phenyl)-6-(((1-methylcyclobutyl)amino)methyl)-4-(trifluoromethyl)isoindolin-1-one]

The next lines start with the molecule.

Row | Structure (SMILES) | IC50 (Cbl-b) | fold-selectivity (Cbl-b over C-cbl) (Cbl-b) | IC50 (c-Cbl) | Fold of selectivity [1] | Kd [1] | Kd (c-Cbl (residues 47-435)) | IC50 (Cbl-b; Example 121) | (fold-selectivity) Cbl-b and C-Cbl Selectivity (Cbl-b)
9 | CC[C@H](NC1(C)CCC1)c1cc2c(c(C(F)(F)F)c1)CN(c1cccc([C@H](c3nncn3C)C3COC3)c1)C2=O [Compound 313, 2-(3-((R)-(4-methyl-4H-1,2,4-triazol-3-yl)(oxetan-3-yl)methyl)phenyl)-6-((S)-1-((1-methylcyclobutyl)amino)propyl)-4-(trifluoromethyl)isoindolin-1-one] | 6.4 nM | 0.68x | 4.4 nM | 4.0× | 0.2 nM | 0.8 nM |  | 
10 | Cn1cnnc1[C@H](c1cccc(N2Cc3c(cc(CNC4(C)CCC4)cc3C(F)(F)F)C2=O)c1)[C@H]1CCOC1 [Compound 169, 2-(3-((S)-(4-methyl-4H-1,2,4-triazol-3-yl)((R)-tetrahydrofuran-3-yl)methyl)phenyl)-6-(((1-methylcyclobutyl)amino)methyl)-4-(trifluoromethyl)isoindolin-1-one] | 72 nM | 4.8x | 340 nM | 2.7× | 66 nM | 180 nM |  | 
11 | CO[C@H]1C[C@](c2cccc(N3Cc4c(cc(CNCC5(CO)CCC5)cc4C(F)(F)F)C3=O)c2)(c2nncn2C)C1 [Compound 489, 6-((((1-(hydroxymethyl)cyclobutyl)methyl)amino)methyl)-2-(3-((1r,3r)-3-methoxy-1-(4-methyl-4H-1,2,4-triazol-3-yl)cyclobutyl)phenyl)-4-(trifluoromethyl)isoindolin-1-one] |  |  | 74 nM | 7.8× | 6.2 nM | 48 nM | 14 nM | 5.3x
12 | CCC(NCc1cc2c(c(C(F)(F)F)c1)CN(c1cccc([C@]3(c4nncn4C)C[C@H](OC)C3)c1)C2=O)C(=O)OC (stereo partly drawn) [Compound 425, methyl 2-(((2-(3-((1r,3r)-3-methoxy-1-(4-methyl-4H-1,2,4-triazol-3-yl)cyclobutyl)phenyl)-3-oxo-7-(trifluoromethyl)isoindolin-5-yl)methyl)amino)butanoate] |  |  | 880 nM | 11× | 170 nM | 1900 nM | 130 nM | 6.8x
13 | Cn1cnnc1[C@@H](c1cccc(N2Cc3c(cc(CNCC(C)(C)F)cc3C(F)(F)F)C2=O)c1)C1COC1 [Compound 463, (R)-6-(((2-fluoro-2-methylpropyl)amino)methyl)-2-(3-((4-methyl-4H-1,2,4-triazol-3-yl)(oxetan-3-yl)methyl)phenyl)-4-(trifluoromethyl)isoindolin-1-one] |  |  | 12 nM | 5.2× | 3.2 nM | 17 nM | 6.5 nM | 1.9x
14 | Cn1cnnc1[C@H](c1cccc(N2Cc3c(cc(CNC4(C)CCC4)cc3C(F)(F)F)C2=O)c1)C1CC(OCC(F)F)C1 (single isomer, unassigned) [Compound 262] | 38 nM | 7.1x | 270 nM | 12× | 13 nM | 150 nM |  | 
15 | Cn1cnnc1[C@@H](c1cccc(N2Cc3c(Cl)cc(CNC4(C)CCC4)cc3C2=O)c1)[C@H]1C[C@H](F)C1 (single isomer, unassigned) [Compound 318] | 280 nM | 5.6x | 1600 nM | 9.6× | 250 nM | 2300 nM |  | 
16 | Cn1cnnc1[C@H](C[C@H]1CCOC1)c1cccc(N2Cc3c(cc(CNC4(C)CCC4)cc3C(F)(F)F)C2=O)c1 [Compound 278, 2-(3-((R)-1-(4-methyl-4H-1,2,4-triazol-3-yl)-2-((S)-tetrahydrofuran-3-yl)ethyl)phenyl)-6-(((1-methylcyclobutyl)amino)methyl)-4-(trifluoromethyl)isoindolin-1-one] | 5000 nM | 1.8x | 8900 nM | 4.8× | 1800 nM | 8600 nM |  | 
17 | CO[C@H]1C[C@](c2cccc(N3Cc4c(cc(CNC5(C)CC5)cc4C(F)(F)F)C3=O)c2)(c2nncn2C)C1 [Compound 475, 2-(3-((1r,3r)-3-methoxy-1-(4-methyl-4H-1,2,4-triazol-3-yl)cyclobutyl)phenyl)-6-(((1-methylcyclopropyl)amino)methyl)-4-(trifluoromethyl)isoindolin-1-one] |  |  | 23 nM | 13× | 3.6 nM | 45 nM | 8.7 nM | 3.3x
18 | C[C@H](NC1(C)CCC1)c1cc(Cl)c2c(c1)C(=O)N(c1cccc([C@]3(c4nncn4C)C[C@@H](F)C3)c1)C2 (single isomer, unassigned) [Compound 289] | 18 nM | 2.4x | 43 nM | 8.5× | 4.6 nM | 37 nM |  | 
